Laboratory results published in US6777415B2, “Methods of inducing cancer cell death and tumor regression” (priority 2000, dated 2004).

Columns and labels:
Ras-transformed cells = Ras-transformed cells (Alessi et al., 1995); cited from earlier work
MAPK pathway = experiment: Time course of MAPK pathway inhibition after treatment; type: cell-based
Excerpt: (2) A “Ras signaling pathyway inhibitor” is defined herein as an agent that blocks the activity of any protein in the signal transduction pathway shown in FIG. 1. A particularly preferred Ras signaling pathway inhibitor is a “MEK inhibitor”, which is defined herein as an agent that blocks the in vitro enzyme activity of a MEK (MAPK/ERK kinase) protein (preferably inhibiting MEK1 and MEK2), and thus blocks the activation of a MAPK protein as evidenced by a block in the phosphorylation of the MAPK protein. This can be detected by western blot analysis for phosphorylated MAPK as described in, e.g., Dudley et al., Proc Natl Acad Sci. 92:7686-7689 (1995), and Favata et al., J Bio Chem. 273:18623-32(1998).
“Sustained effect” is defined herein as a prolonged/enhanced apoptotic response to combination treatment with a FPT I and a MEK1,2 inhibitor in comparison to single treatment alone. The consequences of a “sustained effect” can be monitored either by measurement of MAPK activity or cell death or apoptosis, as described in previously. The effective time course for inhibition of MAPK pathway by the individual drugs is dose dependent. […] (See, e.g., FIG. 6.

human tumor cell lines = conditions: variety of human tumor cell lines, in vitro (Liu et al., 1998); cited from earlier work
[1] = tested on: human tumor cell lines as xenografts; conditions: immuno-compromised mice (Liu et al., 1998); cited from earlier work
MEK = conditions: Favata et al., 1998; cited from earlier work

Compound: COc1cccc(-c2cc(=O)c3ccccc3o2)c1N [PD098059]
- effect on growth factor-mediated proliferation and anchorage-independent growth (Ras-transformed cells): blocks

Compound: NC(=O)N1CCC(CC(=O)N2CCC(C3c4ncc(Br)cc4CCc4cc(Cl)cc(Br)c43)CC2)CC1 (stereo not drawn) [SCH 66336]
- duration of the MAPK inhibitory effect after treatment (MAPK pathway): ≤ 72 h
- time of optimal MAPK pathway inhibition after treatment (MAPK pathway; dose dependent): 12 to 18 h
- inhibition of anchorage-independent growth (human tumor cell lines): inhibition of anchorage-independent growth
- inhibition of growth as xenografts [1]: inhibition

Compound: N#CC(=C(/N)Sc1ccccc1N)/C(C#N)=C(\N)Sc1ccccc1N [U0126]
- affinity of binding to MEK relative to PD098059 (MEK): higher affinity than PD098059
